{"source": "patent US7638600B2", "about": "(priority 2004, dated 2009)", "key": {"[1]": {"system": "RSVF1", "test": "microbe, parasite or virus in culture", "type": "cell-based, B. cereus", "settings": "Bacillus cereus, read-out: MIC for fosfomycin"}, "[2]": {"system": "RSVF1/pDG148", "test": "microbe, parasite or virus in culture", "type": "cell-based, B. cereus", "settings": "Bacillus cereus, read-out: MIC for fosfomycin"}, "[3]": {"system": "RSVF1/pDG148::gp41", "test": "microbe, parasite or virus in culture", "type": "cell-based, B. cereus"}, "[4]": {"system": "spores", "type": "cell-based"}}}
{"molecule": "C[C@@H]1O[C@@H]1P(=O)(O)O", "note": "[fosfomycin]", "values": [{"measurement": "MIC", "setting": "[1]", "value": 62.5, "unit": "µg/mL"}, {"measurement": "MIC", "setting": "[2]", "value": 62.5, "unit": "µg/mL"}, {"measurement": "increase in resistance to the antibiotic fosfomycin", "setting": "[3]", "value": 4, "unit": "log"}, {"measurement": "MIC", "setting": "[3]; Bacillus cereus, read-out: MIC for fosfomycin", "value": 500, "unit": "µg/mL"}]}
{"molecule": "C[C@@H](N)C(=O)O", "note": "[D-alanine]", "values": [{"measurement": "germination frequency", "setting": "[4]", "value": "< 10", "unit": "%"}]}
{"molecule": "C[C@H](N)C(=O)O", "note": "[L-alanine]", "values": [{"measurement": "spores converted to heat sensitive forms", "setting": "[4]", "value": "> 99", "unit": "%"}]}
